In patent US10519134B2, “Pyrazole compounds and methods of making and using same” (Lundbeck La Jolla Research Center, Inc., priority 2015, dated 2019):

Assays:
Assay type in all cases: biochemical
[1] = target: T1, MAGL (Homo sapiens, UniProt Q99685); test: In vitro competitive activity-based protein profiling (human), MAGL gel band
T1 construct: Proteomes (human prefrontal cortex or cell membrane fractions); from tissue; host or cells: human prefrontal cortex (or cell membrane fractions)
T1 sequence (Q99685 1-303): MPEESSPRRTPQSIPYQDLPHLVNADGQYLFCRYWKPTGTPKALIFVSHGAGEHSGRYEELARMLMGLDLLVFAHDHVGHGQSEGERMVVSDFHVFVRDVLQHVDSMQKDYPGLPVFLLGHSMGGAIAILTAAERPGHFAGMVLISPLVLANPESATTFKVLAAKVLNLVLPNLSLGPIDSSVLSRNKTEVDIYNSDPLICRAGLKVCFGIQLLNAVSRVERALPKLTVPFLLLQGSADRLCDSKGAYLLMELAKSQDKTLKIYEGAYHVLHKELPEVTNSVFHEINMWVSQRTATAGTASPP
Protocol: In Vitro Competitive Activity-Based Protein Profiling (Human).
Proteomes (human prefrontal cortex or cell membrane fractions) (50 μL, 1.0-2.0 mg/mL total protein concentration) were preincubated with varying concentrations of inhibitors at 37° C. After 30 min, FP-Rh or JW912 (1.0 μL, 50 μM in DMSO) was added and the mixture was incubated for another 30 min at room temperature. Reactions were quenched with SDS loading buffer (15 μL—4×) and run on SDS-PAGE. Following gel imaging, serine hydrolase activity was determined by measuring fluorescent intensity of gel bands corresponding to MAGL using ImageJ 1.49k software.

[2] = target: T2, MAGL (Mus musculus, UniProt O35678); test: In vitro competitive activity-based protein profiling (mouse), MAGL gel band; conditions: read-out: MAGL % inh. 1 μM
T2 construct: Proteomes (mouse brain membrane fraction or cell lysates); from tissue; host or cells: mouse brain membrane fraction (or cell lysates)
T2 sequence (O35678 1-303): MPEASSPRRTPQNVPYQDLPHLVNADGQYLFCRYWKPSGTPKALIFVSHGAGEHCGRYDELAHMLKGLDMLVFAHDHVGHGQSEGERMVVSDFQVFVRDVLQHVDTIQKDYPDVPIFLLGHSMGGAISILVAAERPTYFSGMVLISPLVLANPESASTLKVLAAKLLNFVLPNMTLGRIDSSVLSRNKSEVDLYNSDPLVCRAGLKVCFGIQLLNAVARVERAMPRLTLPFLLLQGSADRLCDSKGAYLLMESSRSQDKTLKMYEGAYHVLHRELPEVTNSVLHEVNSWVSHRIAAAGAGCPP
Method in brief: (§1)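 Competitive ABPP: inhibitors at varying concentrations were given 30 min at 37 °C with mouse brain membranes or cell lysates (1.0 mg/mL total protein) before 30 min labelling by FP-Rh or HT-01 (stock 50 μM in DMSO). Residual hydrolase activity read as in-gel fluorescence of MAGL and FAAH bands.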

[3] = target: T3, FAAH (Mus musculus, UniProt O08914); test: In vitro competitive activity-based protein profiling (mouse), FAAH gel band; conditions: read-out: FAAH % inh. 1 μM
T3 construct: Proteomes (mouse brain membrane fraction or cell lysates); from tissue; host or cells: mouse brain membrane fraction (or cell lysates)
T3 sequence (O08914 1-579): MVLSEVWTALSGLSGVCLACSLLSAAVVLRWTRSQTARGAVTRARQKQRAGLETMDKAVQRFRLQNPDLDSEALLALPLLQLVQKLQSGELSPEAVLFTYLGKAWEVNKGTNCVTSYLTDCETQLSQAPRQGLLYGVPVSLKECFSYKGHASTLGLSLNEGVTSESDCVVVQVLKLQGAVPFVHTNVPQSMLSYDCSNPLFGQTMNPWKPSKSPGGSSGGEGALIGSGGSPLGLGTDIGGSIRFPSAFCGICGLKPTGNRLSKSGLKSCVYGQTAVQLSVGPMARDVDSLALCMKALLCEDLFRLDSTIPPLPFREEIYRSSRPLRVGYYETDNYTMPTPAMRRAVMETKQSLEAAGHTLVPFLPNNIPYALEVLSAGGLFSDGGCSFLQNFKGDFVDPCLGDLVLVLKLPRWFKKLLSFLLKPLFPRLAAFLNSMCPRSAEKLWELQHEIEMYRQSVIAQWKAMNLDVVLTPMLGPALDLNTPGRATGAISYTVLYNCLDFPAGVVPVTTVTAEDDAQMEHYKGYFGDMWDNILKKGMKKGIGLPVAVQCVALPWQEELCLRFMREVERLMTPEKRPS
Method in brief: as §1

An IC50 [1] of no more than 100 nM, an inhibition at 1 µM [2] of no less than 75% and an inhibition at 1 µM [3] of 0 to 25% were found for CS(=O)(=O)Nc1ccn(C(=O)N2CCN(Cc3ccc(Cl)cc3N3CCC(F)CC3)CC2)n1 [Example 227, N-(1-(4-(4-chloro-2-(4-fluoropiperidin-1-yl)benzyl)piperazine-1-carbonyl)-1H-pyrazol-3-yl) methanesulfonamide] in this work.
An IC50 [1] of no more than 100 nM, an inhibition at 1 µM [2] of no less than 75% and an inhibition at 1 µM [3] of 0 to 25% were found for CC(=O)N1CC2(CCN(c3cc(C(F)(F)F)ccc3CN3CCN(C(=O)n4ccc(NS(C)(=O)=O)n4)CC3)CC2)C1 [Example 228, N-(1-(4-(2-(2-acetyl-2,7-diazaspiro[3.5]nonan-7-yl)-4-(trifluoromethyl)benzyl)piperazine-1-carbonyl)-1H-pyrazol-3-yl) methanesulfonamide] in this work.
An IC50 [1] of no more than 100 nM, an inhibition at 1 µM [2] of no less than 75% and an inhibition at 1 µM [3] of 0 to 25% were found for CS(=O)(=O)Nc1ccn(C(=O)N2CCN(Cc3ccc(Cl)cc3N3CCC4(CC3)CN(S(C)(=O)=O)C4)CC2)n1 [Example 230, N-(1-(4-(4-chloro-2-(2-(methylsulfonyl)-2,7-diazaspiro[3.5]nonan-7-yl)benzyl)piperazine-1-carbonyl)-1H pyrazol-3-yl) methanesulfonamide] in this work.
An IC50 [1] of no more than 100 nM, an inhibition at 1 µM [2] of no less than 75% and an inhibition at 1 µM [3] of 0 to 25% were found for CN(C)C(=O)C1CCN(c2cc(C(F)(F)F)ccc2CN2CCN(C(=O)n3ccc(NS(C)(=O)=O)n3)CC2)CC1 [Example 231, N,N-dimethyl-1-(2-((4-(3-(methylsulfonamido)-1H-pyrazole-1-carbonyl)piperazin-1-yl)methyl)-5-(trifluoromethyl)phenyl)piperidine-4-carboxamide] in this work.
An IC50 [1] of no more than 100 nM, an inhibition at 1 µM [2] of no less than 75% and an inhibition at 1 µM [3] of 0 to 25% were found for CS(=O)(=O)Nc1ccn(C(=O)N2CCN(Cc3ccc(C(F)(F)F)cc3N3CCC4(CC3)CCN(S(C)(=O)=O)C4)CC2)n1 [Example 234, N-(1-(4-(2-(2-(methylsulfonyl)-2,8-diazaspiro[4.5]decan-8-yl)-4-(trifluoromethyl)benzyl)piperazine-1-carbonyl)-1H-pyrazol-3-yl) methanesulfonamide] in this work.
An IC50 [1] of no more than 100 nM, an inhibition at 1 µM [2] of no less than 75% and an inhibition at 1 µM [3] of 0 to 25% were found for CS(=O)(=O)Nc1ccn(C(=O)N2CCN(Cc3ccc(C(F)(F)F)cc3N3CCC4(CCN(S(C)(=O)=O)CC4)C3)CC2)n1 [Example 235, N-(1-(4-(2-(8-(methylsulfonyl)-2,8-diazaspiro[4.5]decan-2-yl)-4-(trifluoromethyl)benzyl)piperazine-1-carbonyl)-1H-pyrazol-3-yl) methanesulfonamide] in this work.
An IC50 [1] of no more than 100 nM, an inhibition at 1 µM [2] of no less than 75% and an inhibition at 1 µM [3] of 0 to 25% were found for CS(=O)(=O)Nc1ccn(C(=O)N2CCN(Cc3ccc(Cl)c(N4CCCCC4)c3)CC2)n1 [Example 236, N-(1-(4-(4-chloro-3-(piperidin-1-yl)benzyl)piperazine-1-carbonyl)-1H-pyrazol-3-yl) methanesulfonamide] in this work.
An IC50 [1] of no more than 100 nM, an inhibition at 1 µM [2] of no less than 75% and an inhibition at 1 µM [3] of 0 to 25% were found for CC(C)n1cc(-c2cc(CN3CCN(C(=O)n4ccc(NS(C)(=O)=O)n4)CC3)ccc2Cl)cn1 [Example 237, N-(1-(4-(4-chloro-3-(1-isopropyl-1H-pyrazol-4-yl)benzyl)piperazine-1-carbonyl)-1H-pyrazol-3-yl) methanesulfonamide] in this work.
An IC50 [1] of 100 to 1000 nM, an inhibition at 1 µM [2] of no less than 75% and an inhibition at 1 µM [3] of 0 to 25% were found for CS(=O)(=O)Nc1ccn(C(=O)N2CCN(Cc3ccc(C(F)(F)F)cc3N3CCC(c4nnn[nH]4)CC3)CC2)n1 [Example 240, N-(1-(4-(2-(4-(1H-tetrazol-5-yl)piperidin-1-yl)-4-(trifluoromethyl)benzyl)piperazine-1-carbonyl)-1H-pyrazol-3-yl) methanesulfonamide] in this work.
An IC50 [1] of no more than 100 nM, an inhibition at 1 µM [2] of no less than 75% and an inhibition at 1 µM [3] of 0 to 25% were found for CS(=O)(=O)Nc1ccn(C(=O)N2CCN(Cc3ccc(C(F)(F)F)cc3N3CCC(C(N)=O)CC3)CC2)n1 [Example 250, 1-(2-((4-(3-(methylsulfonamido)-1H-pyrazole-1-carbonyl)piperazin-1-yl)methyl)-5-(trifluoromethyl)phenyl)piperidine-4-carboxamide] in this work.
